Source: patent US10370436B2, “Anti-pseudomonas Psl binding molecules and uses thereof” (priority 2011, dated 2019)

Assays:
[1] = tested on: PAO1ΔpslA; test: OPK assay, Psl-deficient PAO1ΔpslA and complemented strain; type: cell-based, Pseudomonas aeruginosa; settings: complemented PAO1ΔpslA in contrast to the mutant; FIGS. 3F, 3G
Procedure: This example describes the evaluation of prioritized human IgG1 antibodies to promote OPK of P. aeruginosa. […] OPK assays were performed as described in (DiGiandomenico, A., et al., Infect Immun 72, 7012-7021 (2004)), with modifications. Briefly, assays were performed in 96-well plates using 0.025 ml of each OPK component; P. aeruginosa strains; diluted baby rabbit serum; differentiated HL-60 cells; and monoclonal antibody. In some OPK assays, luminescent P. aeruginosa strains, which were constructed as described (Choi, K. H., et al., Nat Methods 2, 443-448 (2005)), were used. Luminescent OPK assays were performed as described above but with determination of relative luciferase units (RLUs) using a Perkin Elmer ENVISION Multilabel plate reader (Perkin Elmer). […]
This example describes two series of experiments evaluating the ability of PMB-mAb conjugates to promote OPK of P. aeruginosa. In the first experiments (FIGS. 15A-B), conjugate-mediated OPK activity by human HL-60 neutrophil cell line in the presence of rabbit complement was evaluated using P. aeruginosa strains expressing bacterial luciferase as described in Example 2. […] In the second series of experiments, reduction in luminescence following 2 h incubation relative to control lacking mAb was used to determine % killing.

[2] = tested on: P. aeruginosa PAO1 and isogenic mutants; test: Indirect ELISA on plates coated with P. aeruginosa strains; type: binding, Pseudomonas aeruginosa
Excerpt: In addition, duplication of VH CDR3 loop sequences in the libraries (a measure of clonal enrichment during selection), was also found to be higher in the patient library, reaching 88-92%, compared to 15-25% in the naïve library at round 3 (FIG. 1D). Individual scFv phage from affinity selections were next screened by ELISA for reactivity to P. aeruginosa heterologous serotype strains (FIG. 1E). ELISA plates (Nunc; MAXISORP™) were coated with P. aeruginosa strains from overnight cultures as described (DiGiandomenico, A., et al., Infect Immun 72, 7012-7021 (2004)). Diluted antibodies were added to blocked plates for 1 hour, washed, and treated with HRP-conjugated anti-human secondary antibodies for 1 hour followed by development and analysis as described (Ulbrandt, N. D., et al., J Virol 80, 7799-7806 (2006)). The dominant species of phage obtained from whole cell selections with both libraries yielded serotype specific reactivity (data not shown).
This example describes identification of the target of anti-P. aeruginosa antibodies derived from phenotypic screening. Target analysis was performed to test whether the serotype independent antibodies targeted protein or carbohydrate antigens. […] Isogenic mutants were constructed in genes responsible for O-antigen, alginate, and LPS core biosynthesis; wbpL (O-antigen-deficient); wbpL/algD (O-antigen and alginate deficient); rmlC (O-antigen-deficient and truncated outer core); and galU (O-antigen-deficient and truncated inner core). P. aeruginosa mutants were constructed based on the allele replacement strategy described by Schweizer (Schweizer, H. P., Mol Microbiol 6, 1195-1204 (1992); Schweizer, H. D., Biotechniques 15, 831-834 (1993)). Vectors were mobilized from E. coli strain 517.1 into P. aeruginosa strain PAO1; recombinants were isolated as described (Hoang, T. T., et al., Gene 212, 77-86 (1998)). Gene deletion was confirmed by PCR. P. aeruginosa mutants were complemented with pUCP30T-based constructs harboring wild type genes. […] The rmlC and galU genes were recently shown to be required for biosynthesis of the Psl exopolysaccharide, a repeating pentasaccharide polymer consisting of D-mannose, L-rhamnose, and D-glucose. Cam-003 binding to an isogenic pslA knockout PAO1ΔpslA, was tested, as pslA is required for Psl biosynthesis (Byrd, M. S., et al., Mol Microbiol 73, 622-638 (2009)). Binding of Cam-003 to PAO1ΔpslA was abolished when tested by ELISA (FIG. 3B) and FACS (FIG. 3C), while the LPS molecule in this mutant was unaffected (FIG. 3D). Binding of Cam-003 was restored in a PAO1ΔwbpL/algD/pslA triple mutant complemented with pslA (FIG. 3E) as was the ability of Cam-003 to mediate opsonic killing to complemented PAO1ΔpslA in contrast to the mutant (FIGS. 3F and 3G). Binding of Cam-003 antibody to a Pcl exopolysaccharide mutant was also unaffected further confirming Psl as our antibody target (FIG. 3E). Binding assays confirmed that the remaining antibodies also bound Psl (FIGS. 3H and 3I).

## Cam-003: human IgG1 anti-Psl monoclonal antibody, VH SEQ ID NO: 1 and VL SEQ ID NO: 2
[1]
  ability to mediate opsonic killing: restored
[2]; LPS purified from PAO1
  reactivity to purified LPS: not observed
[2]; PAO1ΔpslA, FIG. 3B
  ELISA binding: abolished
[2]; PAO1ΔwbpL/algD/pslA triple mutant complemented with pslA, FIG. 3E
  ELISA binding: restored
[2]; Pcl exopolysaccharide mutant, FIG. 3E
  ELISA binding: unaffected
[2]; rmlC and galU mutants, FIGS. 3A, 3J
  ELISA binding: abolished
[2]; wbpL or wbpL/algD double mutant, FIGS. 3A, 3J
  ELISA binding: unaffected
